“And” between values parts separate entries of the source, which are not always exact repeats. Identical values can stand only once. “Also recorded” adds a separate entry of the source.
Legend:
[1] = target: T1, G2019S LRRK2 (Homo sapiens, UniProt Q5S007, G2019S); assay: Western blot of Rab8a phosphorylation in 293T cells transfected with G2019S LRRK2 and GFP-Rab8a; type: cell-based; conditions: for inhibition of Rab8a phosphorylation by wild-type and G2019S LRRK2: 293T cells; for pRab8/Rab8/LRRK2 normalized to DMSO, Mean / pRab8/Rab8/LRRK2 normalized to DMSO: GFP-11 tagged G2019S LRRK2, 5 μM; for pRab8/Rab8/LRRK2 normalized to DMSO, Mean: 4 replicates; for pRab8/Rab8/LRRK2 normalized to DMSO: individual blots, normalized to WT DMSO (G2019S DMSO mean 2.25334)
T1 construct: The three constructs used in this study are indicated: full-length LRRK2, LRRK2^RCKW, and LRRK2^KW
T1 sequence (Q5S007 whole entry G2019S): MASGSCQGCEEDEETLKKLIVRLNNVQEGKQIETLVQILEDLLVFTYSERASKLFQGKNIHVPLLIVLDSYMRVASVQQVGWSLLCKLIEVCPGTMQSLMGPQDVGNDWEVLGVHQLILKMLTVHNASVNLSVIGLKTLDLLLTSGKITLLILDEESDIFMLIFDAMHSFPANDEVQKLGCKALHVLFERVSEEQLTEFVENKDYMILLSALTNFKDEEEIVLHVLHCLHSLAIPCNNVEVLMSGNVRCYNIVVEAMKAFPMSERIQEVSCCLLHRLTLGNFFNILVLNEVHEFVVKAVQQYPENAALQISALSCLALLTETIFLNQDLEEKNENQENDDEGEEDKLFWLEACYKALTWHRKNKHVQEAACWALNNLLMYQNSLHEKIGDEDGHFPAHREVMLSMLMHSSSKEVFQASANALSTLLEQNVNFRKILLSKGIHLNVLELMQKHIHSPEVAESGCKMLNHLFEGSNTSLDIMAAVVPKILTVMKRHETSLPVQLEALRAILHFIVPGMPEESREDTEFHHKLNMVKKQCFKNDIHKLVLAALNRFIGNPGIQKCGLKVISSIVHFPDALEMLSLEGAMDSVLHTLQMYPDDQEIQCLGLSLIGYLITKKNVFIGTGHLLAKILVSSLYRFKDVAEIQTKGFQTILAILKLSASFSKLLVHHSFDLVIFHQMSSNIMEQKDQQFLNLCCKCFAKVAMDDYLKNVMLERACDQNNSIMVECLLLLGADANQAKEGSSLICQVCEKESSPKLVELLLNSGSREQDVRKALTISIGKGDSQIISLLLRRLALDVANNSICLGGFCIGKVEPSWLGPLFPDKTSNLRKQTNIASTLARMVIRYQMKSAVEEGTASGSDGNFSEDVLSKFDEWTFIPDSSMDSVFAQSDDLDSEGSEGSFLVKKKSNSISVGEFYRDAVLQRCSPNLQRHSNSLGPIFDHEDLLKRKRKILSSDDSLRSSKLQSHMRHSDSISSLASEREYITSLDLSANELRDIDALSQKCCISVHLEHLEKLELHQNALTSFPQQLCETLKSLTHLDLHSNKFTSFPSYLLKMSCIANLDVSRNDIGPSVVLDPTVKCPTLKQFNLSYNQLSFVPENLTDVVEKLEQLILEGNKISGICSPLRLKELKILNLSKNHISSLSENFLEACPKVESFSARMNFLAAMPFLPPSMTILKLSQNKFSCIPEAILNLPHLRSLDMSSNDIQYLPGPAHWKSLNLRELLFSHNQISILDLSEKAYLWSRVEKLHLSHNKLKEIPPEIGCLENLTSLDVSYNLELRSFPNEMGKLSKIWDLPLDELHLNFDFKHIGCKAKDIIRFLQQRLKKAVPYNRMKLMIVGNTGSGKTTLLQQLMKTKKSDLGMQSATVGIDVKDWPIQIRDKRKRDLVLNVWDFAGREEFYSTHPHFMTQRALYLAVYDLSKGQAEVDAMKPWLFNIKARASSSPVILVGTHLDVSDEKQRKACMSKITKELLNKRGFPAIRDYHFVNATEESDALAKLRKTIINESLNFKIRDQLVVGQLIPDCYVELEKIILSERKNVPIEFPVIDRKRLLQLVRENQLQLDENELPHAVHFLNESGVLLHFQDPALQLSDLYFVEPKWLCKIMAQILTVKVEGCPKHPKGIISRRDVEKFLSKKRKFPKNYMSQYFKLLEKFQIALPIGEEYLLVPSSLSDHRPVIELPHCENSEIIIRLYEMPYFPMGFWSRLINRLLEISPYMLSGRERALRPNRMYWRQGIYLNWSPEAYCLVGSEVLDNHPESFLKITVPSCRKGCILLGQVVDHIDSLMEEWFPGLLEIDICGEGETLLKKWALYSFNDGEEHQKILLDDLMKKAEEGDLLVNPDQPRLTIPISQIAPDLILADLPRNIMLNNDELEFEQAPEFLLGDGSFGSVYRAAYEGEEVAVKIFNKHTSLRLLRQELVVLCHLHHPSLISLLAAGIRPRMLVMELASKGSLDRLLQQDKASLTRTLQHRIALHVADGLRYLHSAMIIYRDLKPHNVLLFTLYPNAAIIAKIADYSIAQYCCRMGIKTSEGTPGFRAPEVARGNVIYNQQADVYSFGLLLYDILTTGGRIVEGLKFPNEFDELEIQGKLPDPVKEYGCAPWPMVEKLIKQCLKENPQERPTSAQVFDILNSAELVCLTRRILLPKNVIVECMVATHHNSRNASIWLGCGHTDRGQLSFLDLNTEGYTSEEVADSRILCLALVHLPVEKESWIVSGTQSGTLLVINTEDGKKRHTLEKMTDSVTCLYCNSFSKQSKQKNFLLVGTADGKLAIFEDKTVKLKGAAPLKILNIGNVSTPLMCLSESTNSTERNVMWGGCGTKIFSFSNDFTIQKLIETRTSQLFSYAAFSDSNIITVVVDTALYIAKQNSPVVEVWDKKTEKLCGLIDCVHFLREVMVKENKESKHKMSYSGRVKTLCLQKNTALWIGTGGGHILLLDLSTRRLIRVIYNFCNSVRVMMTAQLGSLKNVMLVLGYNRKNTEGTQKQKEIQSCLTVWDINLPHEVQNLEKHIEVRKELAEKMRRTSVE
Procedure: For all in cell kinase assays, after 48 hours, transfected cells were treated with either DMSO (control) or the indicated inhibitors for 4 hours at 37°C and 5% CO2. Following treatments, cells were washed three times with ice cold PBS. Cells were then lysed in ice cold radioimmunoprecipitation assay (RIPA) lysis buffer [50 mM tris (pH 8.0), 150 mM NaCl, 1% Triton X-100, 0.1% SDS, 0.5% sodium deoxycholate, and 1 mM DTT] in the presence of complete mini EASYpack protease inhibitor cocktail and the PhosSTOP EASYpack phosphatase inhibitor cocktail (Roche). Resuspended and lysed cells were clarified by centrifugation at 13,000g for 15 min at 4°C. […] The membrane was blocked in 5% milk in 1× Tris-buffered saline (TBS) [20 mM tris (pH 8.0) and 150 mM NaCl] for 1 hour shaking at room temperature. […] Membranes were then washed three times in 1× TBS-T before imaging on Li-COR Odyssey CLx controlled by Imaging Studio software (www.licorbio.com/image-studio, RRID:SCR_015795). […] The signal intensity of each band was assessed using the Analyze>Gels tool. The band intensity for phosphorylated LRRK2 was measured and compared to total LRRK2 levels (run under identical conditions on a separate gel). Band intensity for phosphorylated Rab7 or Rab8a was measured and compared against total GFP-Rab7 or GFP-Rab8a (using anti-GFP antibody) and LRRK1/LRRK2 levels as appropriate. Comparative statistical analysis of phosphorylation levels was analyzed using a one-way analysis of variance (ANOVA) and corrected using Tukey’s multiple comparisons test in GraphPad Prism 10 (www.graphpad.com/, RRID:SCR_002798).

[2] = target: LRRK1 (Homo sapiens, UniProt Q38SD2); assay: Western blot of Rab7 phosphorylation (pS72) in 293T cells transfected with LRRK1 and GFP-Rab7; type: cell-based; conditions: for pRab7/Rab7/LRRK1 normalized to DMSO, Mean / pRab7/Rab7/LRRK1 normalized to DMSO: 4 h; for pRab7/Rab7/LRRK1 normalized to DMSO, Mean: 3 replicates; for pRab7/Rab7/LRRK1 normalized to DMSO: individual Western blots; for inhibition of LRRK1 kinase activity in cells: 293T cells, Rab7 phosphorylation
Chain of LRRK1 (Q38SD2 whole entry): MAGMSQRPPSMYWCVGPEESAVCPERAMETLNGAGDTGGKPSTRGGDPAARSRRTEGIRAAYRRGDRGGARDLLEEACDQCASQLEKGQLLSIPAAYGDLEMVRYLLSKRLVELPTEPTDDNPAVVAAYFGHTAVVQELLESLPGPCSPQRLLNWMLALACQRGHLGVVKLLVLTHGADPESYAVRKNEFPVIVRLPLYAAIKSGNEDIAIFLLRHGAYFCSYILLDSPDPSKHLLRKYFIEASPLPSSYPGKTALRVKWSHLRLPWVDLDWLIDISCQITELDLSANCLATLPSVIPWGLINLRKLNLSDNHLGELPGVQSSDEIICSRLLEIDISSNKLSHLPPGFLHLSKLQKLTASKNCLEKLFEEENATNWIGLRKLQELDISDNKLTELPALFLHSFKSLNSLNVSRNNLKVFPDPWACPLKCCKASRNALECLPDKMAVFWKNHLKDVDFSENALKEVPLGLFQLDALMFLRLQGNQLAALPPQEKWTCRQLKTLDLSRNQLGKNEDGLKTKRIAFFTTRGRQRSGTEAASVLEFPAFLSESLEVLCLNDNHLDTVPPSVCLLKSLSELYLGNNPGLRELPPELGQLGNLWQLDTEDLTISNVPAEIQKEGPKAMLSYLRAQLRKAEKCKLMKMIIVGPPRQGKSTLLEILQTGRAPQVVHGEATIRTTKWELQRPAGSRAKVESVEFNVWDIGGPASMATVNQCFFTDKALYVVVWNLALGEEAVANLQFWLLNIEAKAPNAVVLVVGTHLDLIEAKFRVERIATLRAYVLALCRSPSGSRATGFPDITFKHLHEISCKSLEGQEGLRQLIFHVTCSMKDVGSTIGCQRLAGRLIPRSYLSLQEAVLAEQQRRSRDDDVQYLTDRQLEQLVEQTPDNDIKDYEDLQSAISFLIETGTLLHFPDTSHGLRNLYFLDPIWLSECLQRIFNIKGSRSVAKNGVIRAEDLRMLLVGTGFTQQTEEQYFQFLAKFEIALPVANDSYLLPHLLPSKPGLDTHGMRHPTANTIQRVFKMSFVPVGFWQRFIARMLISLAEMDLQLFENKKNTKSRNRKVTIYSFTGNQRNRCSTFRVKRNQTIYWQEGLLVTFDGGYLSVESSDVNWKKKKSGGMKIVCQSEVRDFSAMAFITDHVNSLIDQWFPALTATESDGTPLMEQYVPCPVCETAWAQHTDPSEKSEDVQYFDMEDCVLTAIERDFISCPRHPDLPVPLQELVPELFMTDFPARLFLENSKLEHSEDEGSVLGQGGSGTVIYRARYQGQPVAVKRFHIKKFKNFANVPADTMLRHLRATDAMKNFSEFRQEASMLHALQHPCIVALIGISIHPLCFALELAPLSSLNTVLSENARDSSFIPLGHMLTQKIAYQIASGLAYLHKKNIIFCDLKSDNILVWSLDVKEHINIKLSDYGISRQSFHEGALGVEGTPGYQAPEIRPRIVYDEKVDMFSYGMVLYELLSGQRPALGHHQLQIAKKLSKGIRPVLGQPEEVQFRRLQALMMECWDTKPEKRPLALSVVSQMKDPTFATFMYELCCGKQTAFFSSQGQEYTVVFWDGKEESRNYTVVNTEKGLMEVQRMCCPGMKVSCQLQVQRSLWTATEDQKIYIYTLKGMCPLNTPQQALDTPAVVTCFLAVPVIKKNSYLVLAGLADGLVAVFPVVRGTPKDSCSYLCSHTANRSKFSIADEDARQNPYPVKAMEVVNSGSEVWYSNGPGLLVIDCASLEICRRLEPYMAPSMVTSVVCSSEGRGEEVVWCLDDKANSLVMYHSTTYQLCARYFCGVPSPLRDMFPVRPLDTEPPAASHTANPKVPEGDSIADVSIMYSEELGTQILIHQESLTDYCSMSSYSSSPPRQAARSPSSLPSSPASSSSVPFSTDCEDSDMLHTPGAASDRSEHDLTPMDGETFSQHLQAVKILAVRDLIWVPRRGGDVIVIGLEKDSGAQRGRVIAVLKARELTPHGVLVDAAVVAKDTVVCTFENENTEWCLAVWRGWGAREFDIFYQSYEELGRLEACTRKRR
Procedure: For all in cell kinase assays, after 48 hours, transfected cells were treated with either DMSO (control) or the indicated inhibitors for 4 hours at 37°C and 5% CO2. Following treatments, cells were washed three times with ice cold PBS. Cells were then lysed in ice cold radioimmunoprecipitation assay (RIPA) lysis buffer [50 mM tris (pH 8.0), 150 mM NaCl, 1% Triton X-100, 0.1% SDS, 0.5% sodium deoxycholate, and 1 mM DTT] in the presence of complete mini EASYpack protease inhibitor cocktail and the PhosSTOP EASYpack phosphatase inhibitor cocktail (Roche). Resuspended and lysed cells were clarified by centrifugation at 13,000g for 15 min at 4°C. NuPAGE LDS Sample Buffer (1×) and NuPAGE Sample Reducing Agent (1×; Invitrogen) were added to the clarified supernatants, and the samples were boiled at 95°C for 5 min and spun down at 13,000g for 10 min. For Western blotting, 15 μl of sample was loaded into a NuPAGE 4 to 12% gradient bis-tris gel (Invitrogen) and run at 120 V for 75 min before transfer to polyvinylidene difluoride transfer membrane (0.45-μm pore size, Millipore) for 240 min at 80 V at 4°C. The membrane was blocked in 5% milk in 1× Tris-buffered saline (TBS) [20 mM tris (pH 8.0) and 150 mM NaCl] for 1 hour shaking at room temperature. Primary antibodies [monoclonal rabbit anti-LRRK2 (Abcam, ab133474; RRID: AB_2713963), polyclonal rabbit anti-LRRK1 (Abcam, ab228666), monoclonal rabbit anti-LRRK2 phospho-S935 (Abcam, ab133450; RRID: AB_2732035), monoclonal rabbit anti-Rab8a phospho-T72 (Abcam, ab230260; RRID: AB_2814988), monoclonal rabbit anti-Rab7 phospho-S72 (Abcam, ab302494; RRID: AB_2933985), monoclonal rabbit anti–glyceraldehyde-3-phosphate dehydrogenase (GAPDH; Cell Signalling Technology, 2118; RRID: AB_561053), and monoclonal mouse anti-GFP (Santa Cruz Biotechnology, sc-9996; RRID: AB_627695)] were diluted in 5% milk in TBS and incubated with membrane for 16 hours at 4°C. Following incubation, membranes were washed three times with 1× TBS-T [20 mM tris (pH 8.0), 150 mM NaCl, and 0.1% Tween 20] before incubation with IRDye 680RD goat anti-rabbit IgG (LI-COR, 926-68071; RRID: AB_10956166) and IRDye 800CW goat anti-mouse IgG (LI-COR, 926-32210; RRID: AB_621842) secondary antibodies in 5% milk in 1× TBS for 1 hour at room temperature. Membranes were then washed three times in 1× TBS-T before imaging on Li-COR Odyssey CLx controlled by Imaging Studio software (www.licorbio.com/image-studio, RRID:SCR_015795). Image processing and quantification were performed in ImageJ version 2.14.0 (National Institutes of Health; https://imagej.net/, RRID:SCR_003070). The signal intensity of each band was assessed using the Analyze>Gels tool. The band intensity for phosphorylated LRRK2 was measured and compared to total LRRK2 levels (run under identical conditions on a separate gel). Band intensity for phosphorylated Rab7 or Rab8a was measured and compared against total GFP-Rab7 or GFP-Rab8a (using anti-GFP antibody) and LRRK1/LRRK2 levels as appropriate. Comparative statistical analysis of phosphorylation levels was analyzed using a one-way analysis of variance (ANOVA) and corrected using Tukey’s multiple comparisons test in GraphPad Prism 10 (www.graphpad.com/, RRID:SCR_002798). (For current step-by-step protocol for LRRK transfection and Western blotting, see dx.doi.org/10.17504/protocols.io.kxygx9bozg8j/v1.)

| pRab8/Rab8/LRRK2 normalized to DMSO ([1]; listed as RN277) | pRab7/Rab7/LRRK1 normalized to DMSO ([2]; 250 nM, listed as RN277) | pRab7/Rab7/LRRK1 normalized to DMSO ([2]; 500 nM, listed as RN277) | pRab7/Rab7/LRRK1 normalized to DMSO ([2]; 1 µM, listed as RN277) | pRab7/Rab7/LRRK1 normalized to DMSO ([2]; 5 µM, listed as RN277) | Structure (SMILES) | inhibition of Rab8a phosphorylation by wild-type and G2019S LRRK2 [1] | pRab8/Rab8/LRRK2 normalized to DMSO, Mean [1] | pRab7/Rab7/LRRK1 normalized to DMSO, Mean ([2]; 250 nM) | pRab7/Rab7/LRRK1 normalized to DMSO, Mean ([2]; 500 nM) | pRab7/Rab7/LRRK1 normalized to DMSO, Mean ([2]; 1 μM) | pRab7/Rab7/LRRK1 normalized to DMSO, Mean ([2]; 5 μM) | inhibition of LRRK1 kinase activity in cells ([2]; listed as RN277) | pRab8/Rab8/LRRK2 normalized to DMSO ([1]; listed as RN341) | pRab7/Rab7/LRRK1 normalized to DMSO ([2]; 250 nM, listed as RN341) | pRab7/Rab7/LRRK1 normalized to DMSO ([2]; 500 nM, listed as RN341) | pRab7/Rab7/LRRK1 normalized to DMSO ([2]; 1 µM, listed as RN341) | pRab7/Rab7/LRRK1 normalized to DMSO ([2]; 5 µM, listed as RN341) | inhibition of LRRK1 kinase activity in cells ([2]; listed as RN341) |
| --- | --- | --- | --- | --- | --- | --- | --- | --- | --- | --- | --- | --- | --- | --- | --- | --- | --- | --- |
| 0.5672 and 0.4996 and 1.119 and 0.1285 | 0.1952 and 0.2204 and 0.4248 | 0.134 and 0.06831 and 0.1937 | 0.05675 and 0.07868 and 0.08722 | 0.01168 and 0.03108 and 0.04201 | Cc1ccc(-n2nc(C(C)(C)C)cc2NC(=O)Nc2cccc(-c3c[nH]c4nc(Cl)nc(N5CCOCC5)c34)c2)cc1 [Compound 30] | inhibited phosphorylation of Rab8a by both the wild-type and mutant kinase | 0.5785 | 0.2801 | 0.132 | 0.07421 | 0.02826 | strong inhibitory effect; also recorded: potently inhibited LRRK1 in cells | – | – | – | – | – | – |
| – | – | – | – | – | CCSc1nc(NC)c2c(-c3cccc(NC(=O)Nc4cc(C(C)(C)C)nn4-c4ccc(C)cc4)c3)c[nH]c2n1 [Compound 32] | inhibited phosphorylation of Rab8a by both the wild-type and mutant kinase | 0.8793 | 0.1265 | 0.07673 | 0.0594 | 0.03197 | – | 0.923 and 1.39 and 0.7952 and 0.4091 | 0.09263 and 0.098 and 0.1889 | 0.0375 and 0.09153 and 0.1011 | 0.03839 and 0.04963 and 0.09017 | 0.0003413 and 0.05428 and 0.04127 | strong inhibitory effect; also recorded: potently inhibited LRRK1 in cells |

— paper PMC12136037, “Type II kinase inhibitors that target Parkinson’s disease–associated LRRK2” (Science Advances, 2025)
